The results in this text go back to US12351586B2 (priority 2020, dated 2025).

Test [1] relates to HIV-1 mutant strains (K101E, V108I, F227C, M230I in RT gene). In words: Activity against mutant strains selected by passaging HIV-1 IIIB 30 times in the presence of DK6-1. In kind it is cell-based.
The subject of the next test is WT HIV-1 strain (IIIB). The test is described as follows: Anti-HIV activity in MT-4 cells, MTT method, WT HIV-1 strain (IIIB). In kind it is cell-based. An excerpt:
Etravirine (ETR) was selected as control drug.
Pannecouque et al. Nat. Protoc. […] Methods 20(1988) 309-321.
On the technique in general: Tetrazolium dyes change colour on reduction, which living cells bring about.

The subject of test [2] is HIV-1 L100I mutant strain. In words: microbe, parasite or virus in culture. As to conditions: Human immunodeficiency virus 1, MT4, read-out: EC50 (anti-HIV activity).
In test [3] the test system is HIV-1 E138K mutant strain. The test is described as follows: microbe, parasite or virus in culture. As to conditions: Human immunodeficiency virus 1, MT4, read-out: EC50 (anti-HIV activity).
The subject of test [4] is HIV-1 K103N mutant strain. The test is described as follows: Anti-HIV activity in MT-4 cells, MTT method, K103N mutant strain. It counts as cell-based. As to conditions: Human immunodeficiency virus 1, MT4, read-out: EC50 (anti-HIV activity). An excerpt: Pannecouque et al. Nat. Protoc.

SMILES strings stand for the structures.

Take `Cc1cn([C@H]2C[C@H](N=[N+]=[N-])[C@@H](CO)O2)c(=O)[nH]c1=O` [AZT]: the EC50 (in general, the concentration needed to bring the measured effect to its halfway point) in test [1] (mutant strains with K101E, V108I, F227C, M230I) was found to be 1 nM; with WT HIV-1 strain (IIIB) (HIV-1 IIIB wild-type), 12.7 nM. Besides, the “fold potent versus own activity against HIV-1 IIIB” value in test [1] (selected mutant strains vs HIV-1 IIIB) is “about 10 fold”.
For the compound `Cc1cc(/C=C/C#N)cc(C)c1Oc1nc(NC2CCN(Cc3ccc(S(N)(=O)=O)cc3)CC2)nc2sccc12` [DK6-1], the EC50 was 3.24 nM with WT HIV-1 strain (IIIB) (Human immunodeficiency virus 1, MT4, HIV-1 IIIB wild-type); less than 8 nM in test [2]; less than 8 nM in test [3]; 2.34 nM in test [4].
